Literature values as cited in publication PMC3867298 (Clinical cancer research : an official journal of the …, 2010).

Test system: renal cell carcinoma patients
Conditions: 375 renal cell carcinoma patients, recommended phase 2 dose; cited from earlier work

CCN(CC)CCNC(=O)c1c(C)[nH]c(/C=C2\C(=O)Nc3ccc(F)cc32)c1C [sunitinib]
Patients with at least 1 treatment-related dose reduction: 32%
